From patent US6335443B1, “Chemical synthesis of exochelins” (Keystone Biomedical, Inc., priority 1998, dated 2002)

Experiments:
[1] = biological target: human apotransferrin (<0.7% iron-saturated) (Homo sapiens, UniProt P02787); experiment: Control incubation with human apotransferrin (<0.7% iron-saturated); assay type: biochemical; conditions: apotransferrin 38 mg/ml, listed as Synthetic Desferri-Exochelin 772SM(S)
Description: (§1) A. 40% Iron-Saturated Human Transferrin. To assess the capacity of the 3 different desferri-Exochelins to remove iron from 40% iron-saturated human transferrin, each of them was incubated for 1, 3, and 24 hours with 40% iron-saturated transferrin such that the ratio of Fe^3+: desferri-Exochelin equaled 10:1. The incubation was carried out in PBS, pH 7.4. Afterwards, the Exochelin and transferrin were separated from each other by centrifugation through a 10,000 dalton cut-off filter. The transferrin (mass 76,000 daltons) was completely excluded by this filter whereas 85% of the Exochelin (mass<1,000) was recovered in the filtrate. To determine the total amount of exochelin recovered, the exochelin in the filtrate was saturated with a 20:1 molar excess of ferric ammonium citrate and subjected to reverse-phase HPLC as described above. To determine the amount of iron-saturated Exochelin in the filtrate at each time point, the filtrate was subjected to reverse-phase HPLC without the addition of iron. The % iron-saturation was calculated as follows: [formula]
C. Apotransferrin (<0.7% Iron-Saturated Human Transferrin). As a control, the three desferri-exochelins were incubated for 3 h and 24 h with human apotransferrin (<0.7% iron-saturated) at a concentration of 38 mg/ml, the same concentration of protein as in the study utilizing 92% iron-saturated transferrin in B above. None of the desferri-exochelins acquired appreciable amounts of iron (Table 6).

[2] = Capacity to chelate iron from ferric ammonium citrate solution (reverse-phase HPLC, 450 nm); assay type: binding
Description: A. Capacity to Chelate Iron. To determine if the synthetic desferri-Exochelin 772SM(R) could chelate iron, as does the native form, the Exochelin was dissolved in 0.1% TFA containing ferric ammonium citrate at a 10-fold molar excess of iron to Exochelin. The solution was then loaded on a Bondapak Phenyl 125 Å 10 μm (3.9×300 mm) HPLC column and the Exochelin was subjected to reverse-phase HPLC (High Pressure Liquid Chromatography) on a Rainin (Woburn, Mass.) HPXL system. The Exochelin was eluted with a 0-100% gradient of a buffer consisting of 0.1% TFA and 50% acetonitrile at a flow rate of 1 ml/min. The ferri-exochelins were monitored at 220-nm and 450-nm absorbance. The mass of ferri-exochelin was assayed by measuring the area under the peak at 450-nm and applying a conversion factor derived from assaying known amounts of ferri-exochelin 772SM(R).
A. Capacity to Chelate Iron. The capacity of synthetic Exochelin 772SM(S) to chelate iron from a solution containing a 10-fold molar excess of ferric iron (ferric ammonium citrate) was assayed as described above.

[3] = biological target: holo-transferrin (92% iron-saturated human transferrin) (Homo sapiens, UniProt P02787); experiment: Capacity to remove iron from holo-transferrin (92% iron-saturated human transferrin); assay type: biochemical; conditions: Fe3+:desferri-Exochelin 10:1
holo-transferrin (92% iron-saturated human transferrin), sequence (P02787 20-698): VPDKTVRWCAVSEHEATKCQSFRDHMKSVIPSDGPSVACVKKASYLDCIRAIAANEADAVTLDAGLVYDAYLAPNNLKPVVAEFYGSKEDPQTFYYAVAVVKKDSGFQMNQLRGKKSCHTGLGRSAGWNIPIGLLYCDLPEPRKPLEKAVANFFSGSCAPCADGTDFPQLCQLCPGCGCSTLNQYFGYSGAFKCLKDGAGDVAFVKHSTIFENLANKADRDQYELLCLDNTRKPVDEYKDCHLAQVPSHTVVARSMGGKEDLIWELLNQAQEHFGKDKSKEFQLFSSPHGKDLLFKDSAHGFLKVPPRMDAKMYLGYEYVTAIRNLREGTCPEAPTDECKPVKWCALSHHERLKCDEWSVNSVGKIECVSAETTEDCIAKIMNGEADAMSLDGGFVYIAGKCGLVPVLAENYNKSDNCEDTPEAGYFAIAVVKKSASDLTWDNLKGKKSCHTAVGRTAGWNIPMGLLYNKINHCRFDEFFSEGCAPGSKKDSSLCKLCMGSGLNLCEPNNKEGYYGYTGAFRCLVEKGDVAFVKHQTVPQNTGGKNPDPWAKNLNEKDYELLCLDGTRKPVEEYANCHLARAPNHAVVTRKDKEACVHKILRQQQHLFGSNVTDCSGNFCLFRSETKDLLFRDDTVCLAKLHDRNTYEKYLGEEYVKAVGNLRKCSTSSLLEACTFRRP
Description: as §1
B. Holo-Transferrin (92% Iron-Saturated Human Transferrin). To assess the capacity of the 3 different desferri-Exochelins to remove iron from holo-transferrin (92% iron-saturated human transferring, each of them was incubated for 1, 3, and 24 h with 92% iron-saturated transferrin such that the ratio of Fe^3+: desferri-Exochelin equaled 10:1, as in the aforementioned study with 40% iron-saturated transferrin. The % iron-saturation of the Exochelins was assayed as above.

[4] = biological target: 40% iron-saturated human transferrin (Homo sapiens, UniProt P02787); experiment: Capacity to remove iron from 40% iron-saturated human transferrin; assay type: biochemical; conditions: Fe3+:desferri-Exochelin 10:1, PBS pH 7.4
40% iron-saturated human transferrin, sequence (P02787 20-698): as above
Description: as §1

ferri-Exochelin 758SM [5] = experiment: Capacity to remove iron from a different Exochelin species (Ferri-Exochelin 758SM); assay type: binding
Description: C. Capacity to Remove Iron from a Different Exochelin Species. To assess the affinity of the synthetic desferri-Exochelin 772SM(R) for iron, its capacity to remove iron from a different Exochelin species, ferri-Exochelin 758SM, was evaluated. The capacity of synthetic and native desferri-Exochelin 772SM(R) to remove iron from ferri-Exochelin 758SM was also evaluated and compared. Either native or synthetic desferri-Exochelin 772SM(R) were independently mixed with ferri-Exochelin 758SM. The amount of iron acquired in 1 hour by the desferri-Exochelins was assayed by subjecting the Exochelin to reverse-phase HPLC on a phenyl column, as described above, and the area under the 450 nm absorbance peak was measured. The amount of iron-Exochelin was then calculated using a conversion factor derived from assaying known amounts of ferri-Exochelin 772SM(R).
C. Capacity to Remove Iron from a Different Exochelin Species. To assess the affinity of the synthetic desferri-Exochelin 772SM(S) for iron, its capacity to remove iron from a different exochelin species, ferri-Exochelin 758SM was evaluated. The capacity of synthetic desferri-Exochelin 772SM(S) and native desferri-Exochelin 772SM(R) to remove iron from ferri-Exochelin 758SM was also evaluated and compared. Either synthetic desferri-Exochelin 772SM(S) or native desferri-Exochelin 772SM(R) was mixed with ferri-Exochelin 758SM. The amount of iron acquired by the desferri-exochelins after 1 hour was assayed by subjecting the molecule to reverse-phase HPLC on a phenyl column, as described above, and the area under the 450 nm absorbance peak was measured. The amount of iron-exochelin was then calculated using a conversion factor derived from assaying known amounts of ferri-Exochelin 772SM(R) and ferri-Exochelin 772SM(S).

ferri-Exochelin 758SM [6] = experiment: Capacity to remove iron from Ferri-Exochelin 758SM in the same vial (772SM(R) vs 772SM(S)); assay type: binding; conditions: Table 3
Description: To further assess the relative affinities of the stereoisomers desferri-Exochelin 772SM(R) and 772SM(S) for iron, their capacity to remove iron from a different exochelin species in the same vial were compared.
In the experiment,15.6 μg of 1.1% iron-saturated synthetic Exochelin 772SM(R) and 17.4 μg of 1.0% iron-saturated synthetic Exochelin 772SM(S) was mixed with 13.5 μg of 100% iron-saturated native Exochelin 758SM.

[7] = 1 h, listed as Synthetic Desferri-Exochelin 772SM(S)
[8] = 3 h, listed as Synthetic Desferri-Exochelin 772SM(S)
[9] = listed as Synthetic Desferri-Exochelin 772SM(S)
[10] = listed as synthetic desferri-exochelin 772SM(S)

human apotransferrin (<0.7% iron-saturated), sequence (P02787 20-698): as above

Iron-Saturation 0 h ([1]; 0 h): 1.0%
Iron-Saturation 3 h ([1]; 3 h): 5.0%
Iron-Saturation 24 h ([1]; 24 h): 4.1%
Iron-Saturation 0 h ([3]; 0 h, listed as Synthetic Desferri-Exochelin 772SM(S)): 1.0%
Iron-Saturation 1 h [3, 7]: 18.1%
Iron-Saturation 3 h [3, 8]: 15.5%
Iron-Saturation 24 h [3, 9]: 47.2%
Iron-Saturation 24 h [3, 10]: 47.2%
Iron-Saturation 1 h [4, 7]: 14.2%
Iron-Saturation 3 h [4, 8]: 13.8%
Iron-Saturation 24 h [4, 9]: 35.3%
Iron-Saturation 24 h [4, 10]: 35.3%
SMILES: COC(=O)CCCCCC(=O)N(O)CCCCC(NC(=O)C1COC(c2ccccc2O)=N1)C(=O)OC(C)CC(=O)NC1CCCCN(O)C1=O [Synthetic 772SM(S), Exochelin 772SM(S)]
ferri-exochelin eluted from the HPLC column, % of the Exochelin added ([2]; absence of ferric ammonium citrate, listed as synthetic Exochelin 772SM(S)): 1.03%
capacity to chelate iron (in words) ([2]; ferric iron in solution, listed as synthetic desferri-Exochelin 772SM(S)): rapidly chelates iron in solution
exochelin eluted from the column in the ferri form ([2]; presence of ferric ammonium citrate, 10-fold molar excess of iron, listed as synthetic Exochelin 772SM(S)): fully saturated with iron
% of Calculated Iron-Saturation at Equilibrium 0 hour (ferri-Exochelin 758SM [5]; Table 2, 0 hour, assuming comparable affinities for iron): 2.3%
% Iron-Saturation 0 hour (ferri-Exochelin 758SM [5]; Table 2, 0 hour, mixed with ferri-Exochelin 758SM): 1.0%
% of Calculated Iron-Saturation at Equilibrium 1 hour (ferri-Exochelin 758SM [5]; Table 2, assuming comparable affinities for iron): 89.6%
% of Calculated Iron-Saturation at Equilibrium 1 hour (ferri-Exochelin 758SM [5]; Table 2, assuming comparable affinities for iron, listed as synthetic Exochelin 772SM(S)): 89.6%
% Iron-Saturation 1 hour (ferri-Exochelin 758SM [5]; Table 2, mixed with ferri-Exochelin 758SM): 39.7%
% Iron-Saturation 1 hour (ferri-Exochelin 758SM [5]; Table 2, mixed with ferri-Exochelin 758SM, listed as synthetic Exochelin 772SM(S)): 39.7%
affinity for iron (in words) (ferri-Exochelin 758SM [5]; removal of iron from ferri-Exochelin 758SM within 1 h): very high affinity for iron
% Iron-Saturation 0 hour (ferri-Exochelin 758SM [6]; 0 hour, 772SM(R), 772SM(S) and 758SM in the same vial): 1.0%
% of Calculated Iron-Saturation at Equilibrium 0 hour (ferri-Exochelin 758SM [6]; 0 hour, same vial, assuming comparable affinities): 3.3%
% Iron-Saturation 1 hour (ferri-Exochelin 758SM [6]; 772SM(R), 772SM(S) and 758SM in the same vial): 25.9%
% Iron-Saturation 1 hour (ferri-Exochelin 758SM [6]; 772SM(R), 772SM(S) and 758SM in the same vial, listed as Exochelin 772SM(S)): 25.9%
% of Calculated Iron-Saturation at Equilibrium 1 hour (ferri-Exochelin 758SM [6]; same vial, assuming comparable affinities): 86.6%
% of Calculated Iron-Saturation at Equilibrium 1 hour (ferri-Exochelin 758SM [6]; same vial, assuming comparable affinities, listed as Exochelin 772SM(S)): 86.6%
